From the NIST ThermoML archive (doi:10.1021/je034048e)

Test: molar heat capacity at constant pressure
Details: 101.33 kPa

CCCCCCCC/C=C/CCCCCCCC(=O)OCC(COC(=O)CCCCCCC/C=C/CCCCCCCC)OC(=O)CCCCCCC/C=C/CCCCCCCC [trielaidin]
molar heat capacity at constant pressure [J/K/mol], Small (less than 1 g) adiabatic calorimetry
Details | Crystal | Metastable crystal
8.85 K | – | 2.656
9.73 K | – | 8.854
10.55 K | – | 11.51
11.43 K | – | 19.48
12.54 K | – | 24.79
13.08 K | – | 28.33
14.42 K | – | 36.3
14.92 K | – | 40.73
16.44 K | – | 50.47
16.93 K | – | 56.67
18.55 K | – | 70.83
18.95 K | – | 75.26
20 K | 79.69 | 88.54
20.71 K | – | 89.43
21.09 K | – | 93.86
22.99 K | – | 110.68
23.34 K | – | 113.34
25 K | 115.11 | 123.96
25.34 K | – | 130.16
25.67 K | – | 134.59
27.78 K | – | 148.75
28.07 K | – | 150.52
30 K | 168.23 | 168.23
30.29 K | – | 168.23
30.55 K | – | 171.77
31.33 K | – | 184.17
31.83 K | – | 196.57
33.13 K | – | 197.45
33.17 K | – | 195.68
35 K | 203.65 | 212.5
35.4 K | – | 219.59
37.51 K | – | 236.41
39.64 K | – | 254.12
40 K | 247.92 | 256.78
41.87 K | – | 272.71
44.15 K | – | 292.19
45 K | 292.19 | 301.05
46.49 K | – | 312.56
48.88 K | – | 332.92
50 K | 327.61 | 345.32
51.31 K | – | 350.63
53.78 K | – | 370.11
55 K | 371.88 | 380.74
56.3 K | – | 393.13
58.84 K | – | 412.61
60 K | 407.3 | 416.15
61.42 K | – | 425.89
65 K | 442.72 | 451.57
66.67 K | – | 466.62
69.33 K | – | 480.79
70 K | 469.28 | –

Crystal
Details | molar heat capacity at constant pressure [J/K/mol]
10.52 K | 3.542
11.9 K | 8.854
12.76 K | 23.91
14.41 K | 29.22
16.16 K | 44.27
17.98 K | 59.32
19.96 K | 75.26
22.02 K | 93.86
24.22 K | 111.56
26.5 K | 130.16
28.88 K | 149.64
35.94 K | 215.16
38.34 K | 255
40.46 K | 267.4
42.73 K | 264.74
45.11 K | 290.42
47.47 K | 311.67
49.86 K | 329.38
52.29 K | 347.97
54.77 K | 367.45
57.28 K | 389.59
59.83 K | 409.07
62.4 K | 409.96
65.01 K | 435.63
67.64 K | 457.77
